In patent US12049439B2 (OrsoBio, Inc., priority 2018, dated 2024):

System: PC-3 cells
Assay: PC-3 Oxygen Rate Consumption (OCR) Assay
Type: cell-based
Settings: Homo sapiens, 0.05 h, medium with 2% FBS, OCR at 3-min post-injection normalized to % increase over DMSO-treated cells, concentration for half-maximal OCR increase, read-out: EC50-PC3-OCR-FBS-3min
Experimental: PC-3 Oxygen Rate Consumption (OCR) Assay Procedure:
One day before the assay, PC-3 cells were seeded at 2.5×10^4 cells/160 μL/well in a 96-well XFe96 cell plate, part of a FlexPak containing a cell plate and a cartridge (Agilent, Sunnyvale, CA). The cells were incubated overnight at 37° C. in a 5% CO2 and 90% humidity incubator with F12K culture medium (ThermoFisher Scientific/Invitrogen, Grand Island, NY) containing 10% FBS and 1% penicillin/streptomycin. On the day of the assay, the cells were washed twice with 300 µL/well Medium A [XF assay medium (Agilent) supplemented 10 mM glucose, 1 mM pyruvate, and 2% fetal bovine serum (FBS)], and incubated with 175 µL/well Media A for 1 hr in a 37° C., non-CO2 incubator prior to the measurement of cellular respiration. Compounds of interests were prepared in 1:2 serial dilutions with 100% DMSO and then further diluted into 8× working stock with Media A prior to being loaded to Injection Port A on a XFe96 Analyzer (Agilent). Six replicates were used for each treatment. The cartridge was calibrated in the XFe96 Analyzer 30 minute prior to the measurement of cellular respiration. Basal levels of OCR were measured three times, each using a “3-minute mixing/3-minute measurement” program. The compound effect was measured immediately after compound injection from Injection Port A, and OCR was monitored continuously 10 times, each time using a “1-minute mixing/2-minute measurement” program for a total of 30 minutes post compound injection. The level of OCR at 3-min post-injection was normalized to % increase over DMSO-treated cells. The concentration of compound required to reach the half-maximal OCR increase was defined as EC50 Table 2 contains PC3 OCR EC50 values for the compounds disclosed.

Structure (SMILES) | EC50 [µM]
Cn1cc(S(=O)(=O)Nc2cc(C(F)(F)F)ccc2C(=O)NC23CC(c4ccccc4)(C2)C3)cn1 [Example 39, 2-((1-methyl-1H-pyrazole)-4-sulfonamido)-N-(3-phenylbicyclo[1.1.1]pentan-1-yl)-4-(trifluoromethyl)benzamide] | 7.34
CS(=O)(=O)N1C2CCC1CC(NC(=O)c1ccc(Cl)cc1NS(=O)(=O)CCC(F)(F)F)C2 (stereo not drawn) [Example 218, 4-chloro-N-(8-(methylsulfonyl)-8-azabicyclo[3.2.1]octan-3-yl)-2-((3,3,3-trifluoropropyl)sulfonamido)benzamide] | 53.4
O=C(NC12CC(C1)C2)c1ccc(C(F)(F)F)cc1NS(=O)(=O)c1ccccc1 [Example 37, N-(bicyclo[1.1.1]pentan-1-yl)-2-(phenylsulfonamido)-4-(trifluoromethyl)benzamide] | 2.1
COc1ccc(S(=O)(=O)Nc2ccc(C(F)(F)F)cc2C(=O)NC23CCC(C#N)(CC2)CC3)cc1 [Example 121, N-(4-cyanobicyclo[2.2.2]octan-1-yl)-2-((4-methoxyphenyl)sulfonamido)-5-(trifluoromethyl)benzamide] | 2.26
CS(=O)(=O)Nc1cc(F)ccc1C(=O)NC12CCC(C#N)(CC1)CC2 [Example 198, N-(4-cyanobicyclo[2.2.2]octan-1-yl)-4-fluoro-2-(methylsulfonamido)benzamide] | ≥ 200
[2H]C([2H])([2H])C(c1ccc(S(=O)(=O)Nc2ccc(S(C)(=O)=O)cc2C(=O)NC23CC(C(F)(F)F)(C2)C3)cc1)(C([2H])([2H])[2H])C([2H])([2H])[2H] [Example 151, 2-((4-(2-(methyl-d3)propan-2-yl-1,1,1,3,3,3-d6)phenyl)sulfonamido)-5-(methylsulfonyl)-N-(3-(trifluoromethyl)bicyclo[1.1.1]pentan-1-yl)benzamide] | 9.39
COc1ccc(S(=O)(=O)Nc2cc(C(F)(F)F)ccc2C(=O)NC23CC(C(F)(F)F)(C2)C3)cc1 [Example 111, 2-((4-methoxyphenyl)sulfonamido)-4-(trifluoromethyl)-N-(3-(trifluoromethyl)bicyclo[1.1.1]pentan-1-yl)benzamide] | 0.811
CS(=O)(=O)Nc1ccc(Cl)cc1C(=O)NC12CCC(C#N)(CC1)CC2 [Example 213, 5-chloro-N-(4-cyanobicyclo[2.2.2]octan-1-yl)-2-(methylsulfonamido)benzamide] | 81.9
CP(C)(=O)c1ccc(S(=O)(=O)Nc2cc(C(F)(F)F)ccc2C(=O)NC23CC4CC(CC(C#N)(C4)C2)C3)cc1 [Example 180] | ≥ 200
CC(C)(C)[S+]([O-])Nc1ccc(C(F)(F)F)cc1C(=O)NC12CC(C(F)(F)F)(C1)C2 (stereo not drawn) [Example 192, 2-((tert-butylsulfinyl)amino)-5-(trifluoromethyl)-N-(3-(trifluoromethyl)bicyclo[1.1.1]pentan-1-yl)benzamide] | 14.7
CS(=O)(=O)c1ccc(S(=O)(=O)Nc2ccc(Cl)cc2C(=O)NC23CC(C(F)(F)F)(C2)C3)cc1 [Example 90, 5-chloro-2-((4-(methylsulfonyl)phenyl)sulfonamido)-N-(3-(trifluoromethyl)bicyclo[1.1.1]pentan-1-yl)benzamide] | 2.67
N#CC1CN(S(=O)(=O)Nc2ccc(C(F)(F)F)cc2C(=O)NC23CC(C(F)(F)F)(C2)C3)C1 [Example 234, 2-((3-cyanoazetidine)-1-sulfonamido)-5-(trifluoromethyl)-N-(3-(trifluoromethyl)bicyclo[1.1.1]pentan-1-yl)benzamide] | 3.86
CN(C)S(=O)(=O)c1ccc(S(=O)(=O)Nc2cc(C(F)(F)F)ccc2C(=O)NC23CC(c4ccccc4)(C2)C3)cc1 [Example 30, 2-((4-(N,N-dimethylsulfamoyl)phenyl)sulfonamido)-N-(3-phenylbicyclo[1.1.1]pentan-1-yl)-4-(trifluoromethyl)benzamide] | 1.11
O=C(NC12CC(C(F)(F)F)(C1)C2)c1ccc(C(F)(F)F)cc1NS(=O)(=O)c1cccnc1 [Example 59, 2-(pyridine-3-sulfonamido)-4-(trifluoromethyl)-N-(3-(trifluoromethyl)bicyclo[1.1.1]pentan-1-yl)benzamide] | 1.84
CN(C)S(=O)(=O)Nc1ccc(S(F)(F)(F)(F)F)cc1C(=O)NC12CCC(C#N)(CC1)CC2 [Example 205, N-(4-cyanobicyclo[2.2.2]octan-1-yl)-2-((N,N-dimethylsulfamoyl)amino)-5-(pentafluoro-λ^6-sulfanyl)benzamide] | 1.21
CS(=O)(=O)c1ccc(S(=O)(=O)Nc2cc(Br)ccc2C(=O)NC23CC(C(F)(F)F)(C2)C3)cc1 [Example 46, 4-bromo-2-((4-(methylsulfonyl)phenyl)sulfonamido)-N-(3-(trifluoromethyl)bicyclo[1.1.1]pentan-1-yl)benzamide] | 3.48
CS(=O)(=O)c1ccc(S(=O)(=O)Nc2cc(F)ccc2C(=O)NC23CC(F)(C2)C3)cc1 [Example 21, 4-fluoro-N-(3-fluorobicyclo[1.1.1]pentan-1-yl)-2-((4-(methylsulfonyl)phenyl)sulfonamido)benzamide] | 38.9
CC(C)S(=O)(=O)Nc1ccc(C(F)(F)F)cc1C(=O)NC12CC(C1)C2 [Example 71, N-(bicyclo[1.1.1]pentan-1-yl)-2-((1-methylethyl)sulfonamido)-5-(trifluoromethyl)benzamide] | 6.67
O=C(NC12CC(C1)C2)c1ccc(F)cc1NS(=O)(=O)C1CC1 [Example 50, N-(bicyclo[1.1.1]pentan-1-yl)-2-(cyclopropanesulfonamido)-4-fluorobenzamide] | ≥ 100
CS(=O)(=O)Nc1c(F)cccc1C(=O)NC12CC(C(F)(F)F)(C1)C2 [Example 136, 3-fluoro-2-(methylsulfonamido)-N-(3-(trifluoromethyl)bicyclo[1.1.1]pentan-1-yl)benzamide] | ≥ 100
O=C(NC12CC(C(F)(F)F)(C1)C2)c1ccc(C(F)(F)F)cc1NS(=O)(=O)c1ccc(N2CCS(=O)(=O)CC2)cc1 [Example 106, 2-((4-(1,1-dioxidothiomorpholino)phenyl)sulfonamido)-4-(trifluoromethyl)-N-(3-(trifluoromethyl)bicyclo[1.1.1]pentan-1-yl)benzamide] | 18.8
CC(C)S(=O)(=O)Nc1ccc(C(F)(F)F)cc1C(=O)NC12CC(C(F)(F)F)(C1)C2 [Example 69, 2-((1-methylethyl)sulfonamido)-5-(trifluoromethyl)-N-(3-(trifluoromethyl)bicyclo[1.1.1]pentan-1-yl)benzamide] | 0.518
O=C(NC12CCC(C(F)(F)F)(CC1)CC2)c1cc(SC(F)(F)F)ccc1NS(=O)(=O)N1CCS(=O)(=O)CC1 [Example 237, 2-((1,1-dioxidothiomorpholine)-4-sulfonamido)-N-(4-(trifluoromethyl)bicyclo[2.2.2]octan-1-yl)-5-((trifluoromethyl)thio)benzamide] | 7.73
N#Cc1ccc(NS(=O)(=O)N2CCC2)c(C(=O)NC23CCC(C#N)(CC2)CC3)c1 [Example 132, 2-(azetidine-1-sulfonamido)-5-cyano-N-(4-cyanobicyclo[2.2.2]octan-1-yl)benzamide] | 50.9
NC(=O)c1ccc(S(=O)(=O)Nc2cc(C(F)(F)F)ccc2C(=O)NC23CC(C2)C3)cc1 [Example 52, N-(bicyclo[1.1.1]pentan-1-yl)-2-((4-carbamoylphenyl)sulfonamido)-4-(trifluoromethyl)benzamide] | 200
CN(C)S(=O)(=O)c1ccc(S(=O)(=O)Nc2cc(C(F)(F)F)ccc2C(=O)NC23CC(C#N)(C2)C3)cc1 [Example 42, N-(3-cyanobicyclo[1.1.1]pentan-1-yl)-2-((4-(N,N-dimethylsulfamoyl)phenyl)sulfonamido)-4-(trifluoromethyl)benzamide] | 27.5
CC(C)(C)c1ccc(C(=O)NC23CC(C(F)(F)F)(C2)C3)c(NS(=O)(=O)c2ccc(S(C)(=O)=O)cc2)c1 [Example 13, 4-(tert-butyl)-2-((4-(methylsulfonyl)phenyl)sulfonamido)-N-(3-(trifluoromethyl)bicyclo[1.1.1]pentan-1-yl)benzamide] | 5.72
N#CC12CCC(NC(=O)c3cc(S(F)(F)(F)(F)F)ccc3NS(=O)(=O)N3CCOCC3)(CC1)CC2 [Example 206, N-(4-cyanobicyclo[2.2.2]octan-1-yl)-2-(morpholine-4-sulfonamido)-5-(pentafluoro-λ^6-sulfanyl)benzamide] | 2.71
COC1(C)CN(S(=O)(=O)Nc2ccc(C(F)(F)F)cc2C(=O)NC23CCC(C#N)(CC2)CC3)C1 [Example 225, N-(4-cyanobicyclo[2.2.2]octan-1-yl)-2-((3-methoxy-3-methylazetidine)-1-sulfonamido)-5-(trifluoromethyl)benzamide] | 6.74
CN(C)c1ccc(S(=O)(=O)Nc2cc(C(F)(F)F)ccc2C(=O)NC23CC(C(F)(F)F)(C2)C3)cc1 [Example 102, 2-((4-(dimethylamino)phenyl)sulfonamido)-4-(trifluoromethyl)-N-(3-(trifluoromethyl)bicyclo[1.1.1]pentan-1-yl)benzamide] | 2.42
